Data: ChEMBL document CHEMBL1130638, “Hepatoprotective, superoxide scavenging, and antioxidative activities of aromatic constituents from the bark of Betula platyphylla var. japonica” (1998)

Assays:
Assay type in all cases: functional
[1] = species: Rattus norvegicus; assay: Compound was tested for antioxidative activity using TBA method at a concentration of 200 ug/mL.
[2] = species: Rattus norvegicus; assay: Compound was tested for hepatoprotective activity against D-GalN-induced cytotoxicity in primary cultured rat hepatocytes at 3 uM dose; conditions: Hepatocyte
[3] = species: Rattus norvegicus; assay: Compound was tested for hepatoprotective activity against D-GalN-induced cytotoxicity in primary cultured rat hepatocytes at 30 uM dose; conditions: Hepatocyte
[4] = species: Rattus norvegicus; assay: Compound was tested for hepatoprotective activity against D-GalN-induced cytotoxicity in primary cultured rat hepatocytes at 10 uM dose; conditions: Hepatocyte
[5] = species: Rattus norvegicus; assay: Compound was tested for O2- scavenging activity using NBT method at a concentration of 20 ug/mL.
[6] = species: Rattus norvegicus; assay: Compound was tested for hepatoprotective activity against D-GalN-induced cytotoxicity in primary cultured rat hepatocytes at 100 uM dose; conditions: Hepatocyte
[7] = species: Rattus norvegicus; assay: Compound was tested for O2- scavenging activity using NBT method at a concentration of 20 ug/ml.
[8] = species: Rattus norvegicus; assay: Compound was tested for antioxidative activity using TBA method at a concentration of 200 ug/ml.

SMILES | Inhibition [1] | inhibition at 3 µM [2] | inhibition at 30 µM [3] | inhibition at 10 µM [4] | inhibition [5] | inhibition at 100 µM [6] | inhibition [7] | Inhibition [8]
C[C@H](CCc1ccc(O)cc1)O[C@@H]1O[C@H](CO[C@@H]2OC[C@](O)(CO)[C@H]2O)[C@H](O)[C@@H](O)[C@H]1O | 93.5% | 1.4% | 2.1% | -1.6% | 1.8% | -2.3% |  | 
OC[C@H]1O[C@@H](O[C@@H](CCc2ccc(O)cc2)C[C@@H](O)CCc2ccc(O)cc2)[C@H](O)[C@H](O)[C@H]1O |  | 9.9% | 21.7% | 7.4% |  | 37.4% | 1.8% | 61.8%
Oc1ccc([C@H]2Oc3cc(OC4OCC(O)C(O)C4O)cc(O)c3C[C@@H]2O)cc1O (stereo partly specified) | 50.1% | 4.8% | 8.5% | 8.8% | 92.9% | 9.4% |  | 
Cc1cc(C(C)(C)C)c(O)c(C(C)(C)C)c1 [BUTYLATED HYDROXYTOLUENE] | 97% |  |  |  |  |  |  | 
Cc1c(C)c2c(c(C)c1O)CC[C@@](C)(CCC[C@H](C)CCC[C@H](C)CCCC(C)C)O2 [ALPHA-TOCOPHEROL] | 56.7% |  |  |  |  |  |  | 
C[C@H](CCc1ccc(O)cc1)O[C@@H]1O[C@H](CO[C@@H]2O[C@H](CO)[C@@H](O)[C@@H]2O)[C@H](O)[C@@H](O)[C@H]1O | 98.2% | 3.4% | 7.5% | 6.2% | 5.1% | 6.8% |  | 
C[C@H](CCc1ccc(O)cc1)O[C@@H]1O[C@H](CO)[C@@H](O)[C@H](O)[C@H]1O |  | 4.7% | 4.9% | 10.1% |  | -0.8% |  | 
COc1cc(C(C)(C)C)c(O)c(C(C)(C)C)c1 | 88% |  |  |  |  |  |  | 
C[C@@H](CCc1ccc(O)cc1)O[C@@H]1O[C@H](CO[C@@H]2O[C@@H](CO)[C@H](O)[C@H]2O)[C@@H](O)[C@H](O)[C@H]1O |  | 10.1% | 9.6% | 3.6% | 4% | 5.4% |  | 
C[C@@H](CCc1ccc(O)cc1)O[C@@H]1O[C@H](CO[C@@H]2OC[C@](O)(CO)[C@H]2O)[C@H](O)[C@@H](O)[C@H]1O | 21.8% | 3.6% | 0.7% | 1.7% | 10.8% | -4.5% |  | 
O=C1c2c(O)cc(O)cc2O[C@H](c2ccc(O)c(O)c2)[C@H]1O [(+)-TAXIFOLIN] | 37% |  |  |  | 93.8% |  |  | 
COc1cc([C@@H]2c3c(cc(OC)c(O)c3OC)C[C@H](CO)[C@H]2CO[C@H]2O[C@@H](CO)[C@@H](O)[C@H](O)[C@@H]2O)cc(OC)c1O | 87.2% | 8.3% | 10.5% | 7.6% | 58.8% | 28.9% |  | 
COc1cc([C@H]2c3c(cc(OC)c(O)c3OC)C[C@@H](CO)[C@@H]2CO[C@H]2O[C@@H](CO)[C@@H](O)[C@H](O)[C@@H]2O)cc(OC)c1O | 96.8% | 22.3% | 24.1% | 24.8% | 67.3% | 26.9% |  | 
OC[C@H]1O[C@@H](O[C@@H](CCc2ccc(O)cc2)C[C@H](O)CCc2ccc(O)cc2)[C@H](O)[C@H](O)[C@H]1O |  | 16.2% | 27.3% | 14.1% |  | 74.7% | 1% | 56.3%
OC[C@@]1(O)CO[C@@H](OC[C@H]2O[C@@H](O[C@H](CCCCc3ccc(O)cc3)CCc3ccc(O)cc3)[C@H](O)[C@H](O)[C@H]2O)[C@@H]1O |  | 28.3% | 43.9% | 38.4% |  | 55.3% |  | 
